# In ChEMBL document CHEMBL1127781, “Antitumor agents. 7. Synthesis and antitumor activity of novel hexacyclic camptothecin analogues” (J Med Chem, 1994):
# Key:
# P388 [1] = test: Tested in vitro for the inhibition of P388 (mouse leukemia) cell line by MTT assay; type: functional, cell-based
# QG-56 = test: Tested in vitro for the inhibition of QG-56 (human lung squamous cell carcinoma) cell line by MTT assay; type: functional, cell-based
# HOC-21 cell line = test: Tested in vitro for the inhibition of HOC-21(human ovarian cancer) cell line by MTT assay; type: functional, cell-based
# [2] = Tested for (median survival time of treated/control animals) x100 at dosage of 60 mg/kg; type: functional
# [3] = Tested for (median survival time of treated/control animals) x100 at dosage of 240 mg/kg; type: functional
# [4] = Tested for (median survival time of treated/control animals) x100 at dosage of 30 mg/kg; type: functional
# [5] = Tested for (median survival time of treated/control animals) x100 at dosage of 120 mg/kg; type: functional
# Mus musculus [6] = test: Tested for (median survival time of treated/control animals) x100 at dosage of 60 mg/kg.; type: functional
# Mus musculus [7] = test: Tested for (median survival time of treated/control animals) x100 at dosage of 120 mg/kg.; type: functional
# Mus musculus [8] = test: Tested for (median survival time of treated/control animals) x100 at dosage of 240 mg/kg.; type: functional
# P388 [9] = test: Tested in vitro for the inhibition of P388 (mouse leukemia) cell line by MTT assay; 1.95-6.93 ng/mL; type: functional, cell-based
# [10] = Tested for (median survival time of treated/control animals) x100 at dosage of 30 mg/kg.; type: functional
# [11] = Tested for median survival time of treated/control animals) x100 at dosage of 240 mg/kg.; type: functional
# [12] = Tested for median survival time of treated/control animals) x100 at dosage of 480 mg/kg.; type: functional
# [13] = Tested for (median survival time of treated/control animals) x100 at dosage of 480 mg/kg.; type: functional
# [14] = Tested for median survival time of treated/control animals) x100 at dosage of 120 mg/kg.; type: functional
# [15] = Tested for median survival time of treated/control animals) x100 at dosage of 30 mg/kg.; type: functional
# [16] = Tested for median survival time of treated/control animals) x100 at dosage of 60 mg/kg.; type: functional
compound,measurement,setting,value
CC[C@@]1(O)C(=O)OCc2c1cc1n(c2=O)Cc2c-1nc1cccc3c1c2CNC3,IC50,P388 [1],3.39 ng/mL
same,IC50,QG-56,2.98 ng/mL
same,IC50,HOC-21 cell line,37.8 ng/mL
CCC1(O)C(=O)OCc2c1cc1n(c2=O)Cc2c-1nc1cccc(CN)c1c2C (stereo not given),IC50,P388 [1],5.02 ng/mL
same,IC50,QG-56,6.36 ng/mL
same,IC50,HOC-21 cell line,44.8 ng/mL
CC[C@@]1(O)C(=O)OCc2c1cc1n(c2=O)Cc2c-1nc1ccc(C)c3c1c2CCC3,IC50,P388 [1],0.78 ng/mL
same,IC50,QG-56,0.68 ng/mL
same,IC50,HOC-21 cell line,5.88 ng/mL
CC[C@@]1(O)C(=O)OCc2c1cc1n(c2=O)Cc2c-1nc1cccc3c1c2COC3,IC50,P388 [1],0.95 ng/mL
same,IC50,QG-56,1.14 ng/mL
same,IC50,HOC-21 cell line,12.3 ng/mL
CC[C@@]1(O)C(=O)OCc2c1cc1n(c2=O)Cc2cc3ccccc3nc2-1 [CAMPTOTHECIN],T/C,[2],142%
same,IC50,P388 [1],4.74 ng/mL
same,IC50,QG-56,4.63 ng/mL
same,T/C,[3],144%
same,T/C,[4],130%
same,T/C,[5],176%
same,IC50,HOC-21 cell line,14.7 ng/mL
CCc1c2c(nc3ccc(O)cc13)-c1cc3c(c(=O)n1C2)COC(=O)[C@]3(O)CC [7-ETHYL-10-HYDROXYCAMPTOTHECIN],IC50,QG-56,3.17 ng/mL
same,T/C,Mus musculus [6],191%
same,T/C,Mus musculus [7],258%
same,T/C,Mus musculus [8],67%
same,IC50,P388 [9],6.93 ng/mL
same,IC50,HOC-21 cell line,123 ng/mL
same,T/C,[10],146%
CCC1(O)C(=O)OCc2c1cc1n(c2=O)Cc2cc3ccccc3nc2-1 (racemic),T/C,[2],128%
same,T/C,[3],163%
same,T/C,[4],128%
same,T/C,[5],148%
CC[C@@]1(O)C(=O)OCc2c1cc1n(c2=O)Cc2c-1nc1cccc(C)c1c2C,IC50,P388 [1],3.76 ng/mL
same,IC50,QG-56,0.6 ng/mL
same,IC50,HOC-21 cell line,> 500 ng/mL
CCC1(O)C(=O)OCc2c1cc1n(c2=O)Cc2c-1nc1ccc(C)c3c1c2CCS3 (racemic),IC50,P388 [1],3.77 ng/mL
same,T/C,[11],290%
same,IC50,QG-56,3.36 ng/mL
same,T/C,Mus musculus [6],224%
same,T/C,[12],>400%
same,T/C,Mus musculus [7],293%
same,IC50,HOC-21 cell line,35.8 ng/mL
same,T/C,[10],205%
CC[C@@]1(O)C(=O)OCc2c1cc1n(c2=O)Cc2c-1nc1cccc3c1c2CCCC3,IC50,P388 [1],1.22 ng/mL
same,IC50,QG-56,1.73 ng/mL
same,IC50,HOC-21 cell line,15.6 ng/mL
CC[C@@]1(O)C(=O)OCc2c1cc1n(c2=O)Cc2c-1nc1ccc(O)c3c1c2CCC3,IC50,P388 [1],1.6 ng/mL
same,IC50,QG-56,0.26 ng/mL
same,IC50,HOC-21 cell line,12.6 ng/mL
CCC1(O)C(=O)OCc2c1cc1n(c2=O)Cc2c-1nc1cccc(COC(C)=O)c1c2COC(C)=O (stereo not given),IC50,P388 [1],40.5 ng/mL
same,IC50,QG-56,7.41 ng/mL
same,IC50,HOC-21 cell line,> 500 ng/mL
CCC1(O)C(=O)OCc2c1cc1n(c2=O)Cc2c-1nc1ccc(C)c3c1c2CCN3 (racemic),T/C,[13],180%
same,IC50,QG-56,1.68 ng/mL
same,T/C,Mus musculus [7],207%
same,T/C,Mus musculus [8],174%
same,IC50,HOC-21 cell line,41.8 ng/mL
CCC1(O)C(=O)OCc2c1cc1n(c2=O)Cc2c-1nc1ccc(O)c3c1c2CC3 (racemic),IC50,P388 [1],2.22 ng/mL
same,T/C,[13],78.2%
same,IC50,QG-56,1.25 ng/mL
same,T/C,Mus musculus [6],206%
same,T/C,Mus musculus [7],110%
same,T/C,Mus musculus [8],90.9%
same,IC50,HOC-21 cell line,15.9 ng/mL
same,T/C,[10],167%
CCC1(O)C(=O)OCc2c1cc1n(c2=O)Cc2c-1nc1ccc(C)c3c1c2CCO3 (racemic),IC50,P388 [1],4.5 ng/mL
same,T/C,[13],>376%
same,IC50,QG-56,1.38 ng/mL
same,T/C,Mus musculus [6],260%
same,T/C,Mus musculus [7],273%
same,T/C,Mus musculus [8],376%
same,IC50,HOC-21 cell line,41.9 ng/mL
CCC1(O)C(=O)OCc2c1cc1n(c2=O)Cc2c-1nc1ccc(O)c3c1c2CCO3 (racemic),T/C,[13],19%
same,IC50,QG-56,1.1 ng/mL
same,T/C,Mus musculus [6],221%
same,T/C,Mus musculus [7],233%
same,T/C,Mus musculus [8],20%
same,IC50,HOC-21 cell line,79 ng/mL
same,T/C,[10],147%
CCC1(O)C(=O)OCc2c1cc1n(c2=O)Cc2c-1nc1ccc(O)c3c1c2CCC3 (racemic),T/C,[14],354%
same,T/C,[15],182%
same,IC50,P388 [1],3.8 ng/mL
same,T/C,[11],>392%
same,IC50,QG-56,0.5 ng/mL
same,T/C,[12],88.5%
same,IC50,HOC-21 cell line,26.4 ng/mL
same,T/C,[16],201%
